The results in this text go back to ChEMBL document CHEMBL1130091, “Synthesis and cytotoxic evaluation of substituted sulfonyl-N-hydroxyguanidine derivatives as potential antitumor agents” (J Med Chem, 1997).

As usually defined, the IC50 is the midpoint of a concentration-inhibition curve. As usually defined, the Inhibition is the relative decrease from the control value, in per cent. A higher Inhibition goes with a strong effect. What is called inhibition in vivo is the relative decrease from the control value, in per cent. Low readings indicate a response near the control, high ones a response far below the control.

Values after ≈ are worked out from the molar mass of the structure shown.

The test system of one experiment is HepG2. Nature of the experiment: Cytotoxic activity against human tumor HepG2 cell line. Format: functional, cell-based.
Another experiment relates to KB. Nature of the experiment: Cytotoxic activity against human tumor KB cell line. Format: functional, cell-based.
A further experiment concerns COLO 205. Nature of the experiment: Cytotoxic activity against human tumor COLO 205 cell line. In kind it is functional, cell-based.
A further experiment has as its system TSGH 8302. Nature of the experiment: Cytotoxic activity against human tumor TSGH 8302 cell line. In kind it is functional, cell-based.
The subject of experiment [1] is MOLT-4. Nature of the experiment: Cytotoxic Activity against human tumor MOLT-4 cell line with 20 micro g/mL. In kind it is functional.
Experiment [2] relates to MOLT-4. Put plainly: Cytotoxic Activity against human tumor MOLT-4 cell line. In kind it is functional, cell-based.
For experiment [3], the system named is Mus musculus. Nature of the experiment: Antitumor activity against Murine K1735/M2 Melanoma xenograft expressed as body weight change from day 0 to 20 in mice at dose of 300 mg/kg oral administration. In kind it is functional.
The subject of experiment [4] is Mus musculus. Put plainly: Tumor growth inhibition determined at day 20 after tumor transplantation in mice at dose of 300 mg/kg oral administration. Conditions: 480 h. In kind it is functional.

As for `O=[N+]([O-])c1cccc(Cl)c1Oc1ccc(S(=O)(=O)N/C(=N\O)Nc2ccc(Cl)cc2)cc1`, the IC50 with HepG2 was over 100 µg/mL; in the experiment on KB it was 83 µg/mL (≈ 167 µM); with COLO 205, over 100 µg/mL; in the experiment on TSGH 8302 it was 53 µg/mL (≈ 107 µM).
In the experiment with MOLT-4 [1], `Cc1ccc(S(=O)(=O)/N=C(\S)Nc2ccc(Cl)cc2)cc1` came in with an Inhibition of 59%. In addition, the IC50 in the experiment with HepG2 stood at 232 µg/mL (≈ 681 µM); in the experiment with KB it was 80 µg/mL (≈ 235 µM); with COLO 205, 87 µg/mL (≈ 255 µM); with TSGH 8302 it was 125 µg/mL (≈ 367 µM).
Regarding `O=S(=O)(N/C(=N\O)Nc1ccc(Cl)cc1)c1cccc2snnc12`, the IC50 turned out to be 33 µg/mL (≈ 86 µM) in the experiment with MOLT-4 [2]; 45 µg/mL (≈ 117 µM) in the experiment with HepG2; 35 µg/mL (≈ 91.2 µM) in the experiment on KB; 87 µg/mL (≈ 227 µM) with COLO 205; 93 µg/mL (≈ 242 µM) with TSGH 8302.
For the compound `O=S(=O)(N/C(=N\O)Nc1ccc(Cl)cc1)c1ccc(S(=O)(=O)c2ccccc2)s1`, the half-maximal inhibitory concentration (IC50) stood at 92 µg/mL (≈ 195 µM) in the experiment with HepG2, 29 µg/mL (≈ 61.4 µM) in the experiment on KB, 59 µg/mL (≈ 125 µM) with COLO 205 and 41 µg/mL (≈ 86.9 µM) with TSGH 8302.
As to `O=S(=O)(N/C(=N\O)Nc1ccc(Cl)cc1)c1ccccc1`, the IC50 was 7 µg/mL (≈ 21.5 µM) with MOLT-4 [2]; 54 µg/mL (≈ 166 µM) with HepG2; 46 µg/mL (≈ 141 µM) in the experiment on KB; 53 µg/mL (≈ 163 µM) in the experiment with COLO 205; 52 µg/mL (≈ 160 µM) with TSGH 8302.
For the compound `O=[N+]([O-])c1ccc(Oc2c(Cl)cc(S(=O)(=O)N/C(=N\O)Nc3ccc(Cl)cc3)cc2Cl)c(Cl)c1`, the half-inhibitory concentration (IC50) with MOLT-4 [2] stood at 56 µg/mL (≈ 98.9 µM); in the experiment on HepG2 it was 49 µg/mL (≈ 86.5 µM); in the experiment on KB, 7 µg/mL (≈ 12.4 µM); in the experiment with COLO 205 it was 6 µg/mL (≈ 10.6 µM); with TSGH 8302 it was 7 µg/mL (≈ 12.4 µM). Besides, the Body weight change in the experiment on Mus musculus [3] amounted to 1.3 g. In the experiment on Mus musculus [4], this compound showed an inhibition in vivo at 300 mg/kg of 70.7%.
As to `Cc1c(S(=O)(=O)N/C(=N\O)Nc2ccc(Cl)c(Cl)c2)sc2ccc(Cl)cc12`, the IC50 in the experiment on MOLT-4 [2], in the experiment with HepG2, with KB, in the experiment on COLO 205 and in the experiment on TSGH 8302 was over 300 µg/mL in each case.
With `Cc1c(S(=O)(=O)/N=C(\S)Nc2ccc(Cl)cc2)sc2ccc(Cl)cc12`, the Inhibition with MOLT-4 [1] was found to be 12%. The IC50 came out at 57 µg/mL (≈ 132 µM) in the experiment with HepG2, 61 µg/mL (≈ 141 µM) in the experiment on KB, 52 µg/mL (≈ 121 µM) with COLO 205 and 55 µg/mL (≈ 127 µM) in the experiment on TSGH 8302.
As to `O=S(=O)(NC(=S)Nc1ccc(Cl)cc1)c1ccccc1`, the Inhibition with MOLT-4 [1] came out at 63%. Also, the IC50 with HepG2 is over 300 µg/mL; in the experiment on KB it was 66 µg/mL (≈ 202 µM); in the experiment on COLO 205, 91 µg/mL (≈ 278 µM); in the experiment with TSGH 8302, over 300 µg/mL.
Regarding `Cc1c(S(=O)(=O)/N=C(\S)Nc2ccc(Cl)c(Cl)c2)sc2ccc(Cl)cc12`, in the experiment on MOLT-4 [1], the Inhibition stood at 65%. Further, the 50% inhibitory concentration (IC50) in the experiment with HepG2 amounted to 62 µg/mL (≈ 133 µM); in the experiment on KB it was 25 µg/mL (≈ 53.7 µM); in the experiment on COLO 205 it was 57 µg/mL (≈ 122 µM); with TSGH 8302, 59 µg/mL (≈ 127 µM).
For `O=S(=O)(NC(=S)Nc1ccc(Cl)cc1)c1cc(S(=O)(=O)c2ccccc2)cs1`, the half-inhibitory concentration (IC50) with HepG2 was 214 µg/mL (≈ 452 µM); in the experiment on KB, 196 µg/mL (≈ 414 µM); in the experiment with COLO 205, 220 µg/mL (≈ 465 µM); in the experiment on TSGH 8302 it was 217 µg/mL (≈ 459 µM).
In the experiment on MOLT-4 [1], `Cc1ccc(S(=O)(=O)/N=C(\S)Nc2ccc(Cl)c(Cl)c2)cc1` returned an Inhibition of 39%. In addition, the IC50 turned out to be 120 µg/mL (≈ 320 µM) with HepG2, 41 µg/mL (≈ 109 µM) in the experiment on KB, 45 µg/mL (≈ 120 µM) in the experiment with COLO 205 and 55 µg/mL (≈ 147 µM) in the experiment with TSGH 8302.
`N#Cc1c(Cl)cccc1Oc1ccc(S(=O)(=O)N/C(=N\O)Nc2ccc(Cl)cc2)cc1`: the half-inhibitory concentration (IC50) in the experiment on MOLT-4 [2] is 95 µg/mL (≈ 199 µM); in the experiment on HepG2, over 300 µg/mL; in the experiment on KB, 39 µg/mL (≈ 81.7 µM); in the experiment on COLO 205, 178 µg/mL (≈ 373 µM); with TSGH 8302, 168 µg/mL (≈ 352 µM).
The matching figures for `O=S(=O)(N/C(=N\O)Nc1ccc(Cl)cc1)c1cc(C(F)(F)F)cc(C(F)(F)F)c1`: 44 µg/mL (≈ 95.3 µM), 233 µg/mL (≈ 505 µM), 57 µg/mL (≈ 123 µM), 58 µg/mL (≈ 126 µM) and 66 µg/mL (≈ 143 µM).
Consider `O=S(=O)(N/C(=N\O)Nc1ccc(Cl)cc1)c1cc(S(=O)(=O)c2ccccc2)cs1`, for which the IC50 in the experiment with MOLT-4 [2] was 22 µg/mL (≈ 46.6 µM); in the experiment on HepG2 it was 175 µg/mL (≈ 371 µM); in the experiment with KB, 10 µg/mL (≈ 21.2 µM); in the experiment with COLO 205, 45 µg/mL (≈ 95.3 µM); in the experiment with TSGH 8302 it was 37 µg/mL (≈ 78.4 µM).
Turning to `O=S(=O)(N/C(=N\O)Nc1ccc(Cl)cc1)c1cc2ccccc2o1`, the results for the half-inhibitory concentration (IC50) in the experiment on HepG2, in the experiment on KB and with COLO 205 were over 200 µg/mL, 67 µg/mL (≈ 183 µM) and over 200 µg/mL, respectively.
Take `CCCCOc1ccc(S(=O)(=O)N/C(=N\O)Nc2ccc(Cl)cc2)cc1`: the half-inhibitory concentration (IC50) in the experiment with MOLT-4 [2] stood at 18 µg/mL (≈ 45.2 µM); in the experiment with HepG2, 63 µg/mL (≈ 158 µM); with KB it was 50 µg/mL (≈ 126 µM); in the experiment on COLO 205, 49 µg/mL (≈ 123 µM); in the experiment with TSGH 8302, 37 µg/mL (≈ 93 µM).
Take `Cc1ccc(S(=O)(=O)N/C(=N\O)Nc2ccc(Cl)cc2)cc1`: the half-inhibitory concentration (IC50) in the experiment with MOLT-4 [2] turned out to be 6 µg/mL (≈ 17.7 µM); in the experiment with HepG2, 49 µg/mL (≈ 144 µM); in the experiment with KB, 46 µg/mL (≈ 135 µM); in the experiment on COLO 205, 58 µg/mL (≈ 171 µM); with TSGH 8302, 46 µg/mL (≈ 135 µM).
As to `O=S(=O)(N/C(=N\O)Nc1ccc(Cl)cc1)c1ccc(-c2cccs2)cn1`, the IC50 with MOLT-4 [2] was determined as 75 µg/mL (≈ 183 µM); in the experiment on HepG2, 121 µg/mL (≈ 296 µM); with KB, 61 µg/mL (≈ 149 µM); in the experiment with COLO 205, 74 µg/mL (≈ 181 µM); in the experiment with TSGH 8302, 208 µg/mL (≈ 509 µM).
On the same counts, the results for `O=S(=O)(N/C(=N\O)Nc1ccc(Cl)cc1)c1cc2ccccc2s1` are 57 µg/mL (≈ 149 µM), 176 µg/mL (≈ 461 µM), 55 µg/mL (≈ 144 µM), 80 µg/mL (≈ 209 µM) and 76 µg/mL (≈ 199 µM).
As to `O=S(=O)(NC(=S)Nc1ccc(Cl)cc1)c1ccc(S(=O)(=O)c2ccccc2)s1`, the Inhibition with MOLT-4 [1] came out at 59%. Moreover, the IC50 was 216 µg/mL (≈ 457 µM) with HepG2, 66 µg/mL (≈ 140 µM) in the experiment with KB, 65 µg/mL (≈ 137 µM) with COLO 205 and 79 µg/mL (≈ 167 µM) with TSGH 8302.
With `O=S(=O)(N/C(=N\O)Nc1ccc(Cl)cc1)c1cc(-c2ccsc2)no1`, the IC50 with MOLT-4 [2] was 9 µg/mL (≈ 22.6 µM); in the experiment with HepG2, over 300 µg/mL; in the experiment on KB, 55 µg/mL (≈ 138 µM); in the experiment on COLO 205, 52 µg/mL (≈ 130 µM); in the experiment with TSGH 8302, 149 µg/mL (≈ 374 µM).
On to `O=S(=O)(NC(=S)Nc1ccc(Cl)cc1)c1cccc2snnc12`, for which, in the experiment on MOLT-4 [1], the Inhibition is recorded as 55%. Further, the IC50 in the experiment on HepG2 is 124 µg/mL (≈ 322 µM); with KB it was 63 µg/mL (≈ 164 µM); in the experiment with COLO 205, 50 µg/mL (≈ 130 µM); with TSGH 8302, 42 µg/mL (≈ 109 µM).
As to `Cc1ccc(S(=O)(=O)N/C(=N\O)Nc2ccc(Cl)c(Cl)c2)cc1`, the IC50 turned out to be 7 µg/mL (≈ 18.7 µM) in the experiment on MOLT-4 [2]; 72 µg/mL (≈ 192 µM) in the experiment with HepG2; 8 µg/mL (≈ 21.4 µM) in the experiment with KB; 10 µg/mL (≈ 26.7 µM) in the experiment on COLO 205; 67 µg/mL (≈ 179 µM) in the experiment with TSGH 8302.
In the case of `Cc1ccc(S(=O)(=O)NC(=O)Nc2ccc(Cl)cc2)cc1` [LY-181984], the Body weight change in the experiment on Mus musculus [3] is -1.2 g. Also, the Inhibition in the experiment with MOLT-4 [1] is on record as 33%. The IC50 with HepG2 was over 300 µg/mL; with KB it was 72 µg/mL (≈ 222 µM); with COLO 205, 83 µg/mL (≈ 256 µM); in the experiment on TSGH 8302, 106 µg/mL (≈ 326 µM). In addition, in the experiment with Mus musculus [4], testing at 300 mg/kg gave an inhibition in vivo of 64.7%.
For the compound `Cc1c(S(=O)(=O)N/C(=N\O)Nc2ccc(Cl)cc2)sc2ccc(Cl)cc12`, the IC50 in the experiment on MOLT-4 [2] was 38 µg/mL (≈ 88.3 µM); in the experiment on HepG2 it was 140 µg/mL (≈ 325 µM); in the experiment on KB, 29 µg/mL (≈ 67.4 µM); in the experiment with COLO 205, 60 µg/mL (≈ 139 µM); with TSGH 8302, 44 µg/mL (≈ 102 µM).
Regarding `O=[N+]([O-])c1ccc(Oc2c(Cl)cc(S(=O)(=O)N/C(=N\O)Nc3ccc(Cl)cc3)cc2Cl)cc1`, the IC50 stood at 55 µg/mL (≈ 103 µM) in the experiment with MOLT-4 [2]; 22 µg/mL (≈ 41.4 µM) in the experiment with HepG2; 12 µg/mL (≈ 22.6 µM) in the experiment with KB; 12 µg/mL (≈ 22.6 µM) in the experiment with COLO 205; 7 µg/mL (≈ 13.2 µM) in the experiment with TSGH 8302.
